In US12691107B2, “Methods for the treatment and prevention of lung infections caused by gram-positive bacteria, fungus, or virus by administration of tafenoquine” (priority 2020, dated 2026):
Values after ≈ are worked out from the molar mass of the structure shown. Values joined by “and” are separate entries in the source; they are usually repeats but may differ in a detail not shown here. Equal entries are not always repeated. Where two headings read alike, the source gives them in different places.

Tests used:
[1] = system: SARS-CoV-2; test: microbe, parasite or virus in culture; assay type: cell-based
[2] = system: Pneumocystis; details: cited from earlier work
[3] = female, rat, in vivo, 2 mg/kg
[4] = system: Aspergillus fumigatus; test: Antifungal MIC (RPMI-1640 microdilution); assay type: cell-based
[5] = system: M. tuberculosis [ATCC #27294]; test: MIC against M. tuberculosis in 7H9 media; assay type: cell-based; details: Mycobacterium tuberculosis
[6] = system: Plasmodium cynomolgi; details: for three days; cited from earlier work
[7] = Plasma levels of tafenoquine in humans; details: human, in vivo
[8] = Calculation of RLTEC and MPEC50 for tafenoquine against SARS-CoV-2; details: human, lung/whole blood; assumed to be the same as rats; read-out: Ratio of lung to whole blood concentration for humans
Method: (§1) Pneumocystis was used as a model organism against which to set minimum requirements for the maximum acceptable in vitro EC50 of tafenoquine against SARS-CoV-2 in vitro. Pneumocystis was selected because it is the only lung pathogen for which both in vitro and in vivo data are available for tafenoquine. The maximum lung tissue concentration [LTsscmaxrats] at the minimum dose of tafenoquine necessary to inhibit the growth of Pneumocystis in vivo in a treatment modality was calculated using relevant data derived from the scientific literature [see Table 7]. The ratio of that concentration to the EC50 against Pneumocystis in vitro RLTEC was determined [see Table 7]. The plasma steady state Cmax [Psscmaxhumans] at the approved prophylactic dose is known from the ARAKODA product insert [60 Degrees Pharmaceuticals. 2018. Product Insert for ARAKODA.]. The maximum steady state lung tissue concentration [LTsscmaxhumans] of that dose was determined using relevant metrics from the literature. The maximum permissible EC50 (“MPEC50”) was then defined by dividing the LTsscmaxhumans by the RLTEC [Table 7].
(§2) The steady state Cmax at the approved prophylactic dose is known based on prior modeling. The maximum steady state lung tissue concentration of that dose was estimated to be 389 microM [Table 7].
(§3) [Note: These calculated values provided in this example were recalculated and updated in the present application and therefore may differ from what is presented in some cross-referenced U.S. Provisional Applications.]

[9] = system: SARS-CoV-2; test: as above
Method: as §1, §2, §3

[10] = Blood cell:plasma partitioning experiments; assay type: in vitro ADME, human; details: humans
[11] = in vivo, cited from earlier work
[12] = system: Pneumocystis; details: cited from earlier work; for minimum dose required to reduce parasitemia nearly to zero: two to three week period
[13] = system: Pneumocystis; test: Pneumocystis pneumonia in rats, therapy or prophylaxis
[14] = system: Scedosporium sp.; test: Antifungal MIC (RPMI-1640 microdilution); assay type: cell-based
[15] = system: Coccidioides sp.; test: microbe, parasite or virus in culture; assay type: cell-based
[16] = system: Candida auris; test: Antifungal MIC (RPMI-1640 microdilution); assay type: cell-based
[17] = system: Rhizopus arrhizus; test: Antifungal MIC (RPMI-1640 microdilution); assay type: cell-based
[18] = system: Streptococcus pneumoniae; test: Antibacterial MIC (broth microdilution); assay type: cell-based; details: CA-MHB with 3% LHB
[19] = system: Aspergillus flavus; test: Antifungal MIC (RPMI-1640 microdilution); assay type: cell-based
[20] = system: K. pneumoniae; test: Antibacterial MIC (broth microdilution); assay type: cell-based; details: Klebsiella pneumoniae
[21] = system: Exserohilum sp.; test: Antifungal MIC (RPMI-1640 microdilution); assay type: cell-based
[22] = system: P. variotii; test: Antifungal MIC (RPMI-1640 microdilution); assay type: cell-based; details: Paecilomyces variotii, isolate MYA-3630
[23] = read-out: MIC 100% inhibition, isolate AF293

COc1cc(C)c2c(Oc3cccc(C(F)(F)F)c3)c(OC)cc(NC(C)CCCN)c2n1 (stereo not shown) [Tafenoquine, N(4)-[2,6-Dimethoxy-4-methyl-5-[3-(trifluoromethyl)phenoxy]quinolin-8-yl]pentane-1,4-diamine]
selectivity index ([1]; 4-day assay): 2.4
EC50 ([1]; Severe acute respiratory syndrome coronavirus 2, Vero C1008, 96 h): 15.7 µM
Approximate EC50 of tafenoquine against Pneumocystis in vitro [2]: ~1 µg/mL
Estimate of plasma concentration following a single dose of 2 mpk in rats [3]: 35.84 ng/mL
MIC [4, 23]: 16 µg/mL (≈ 34.5 µM)
MIC ([5]; ATCC27294, 168 h, 7H9 with BSA, DPPC and cholesterol, 1 week, read-out: MIC): 9.4 µg/mL (≈ 20.3 µM)
MIC ([5]; ATCC27294, 168 h, 7H9 with casitone and DPPC, 1 week, read-out: MIC): 4.7 µg/mL (≈ 10.1 µM)
MIC ([5]; ATCC27294, 168 h, 7H9 with glucose and BSA, 1 week, read-out: MIC): 12.5 µg/mL (≈ 27 µM)
MIC ([5]; ATCC27294, 168 h, 7H9 with glucose and casitone, 1 week, read-out: MIC): 4.7 µg/mL (≈ 10.1 µM)
MIC ([5]; ATCC27294, 336 h, 7H9 with BSA, DPPC and cholesterol, 2 weeks, read-out: MIC): 12.5 µg/mL (≈ 27 µM)
MIC ([5]; ATCC27294, 336 h, 7H9 with casitone and DPPC, 2 weeks, read-out: MIC): 6.25 µg/mL (≈ 13.5 µM)
MIC ([5]; ATCC27294, 336 h, 7H9 with glucose and BSA, 2 weeks, read-out: MIC): 19 µg/mL (≈ 41 µM)
MIC ([5]; ATCC27294, 336 h, 7H9 with glucose and casitone, 2 weeks, read-out: MIC): 6.25 µg/mL (≈ 13.5 µM)
MIC ([5]; ATCC27294, range over Examples 19-22, read-out: MIC against replicating forms of tuberculosis in vitro): 4.7 to 18 µg/mL (≈ 10.1 to 38.8 µM)
dose required to eliminate the replicating blood stage forms [6]: 6 mg/kg/day
dose required to kill the quiescent hypnozoites [6]: 0.6 mg/kg/day
ratio between steady state and single dose concentrations [7]: approximately 3.3
Kp [8]: 250
LTsscmaxhumans (maximum steady state lung tissue concentration) ([9]; approved prophylactic dose): 389 µM
LTcmaxrats (maximum lung tissue concentration) ([9]; plasma Cmax multiplied by 2.6 and 250): 23,296 ng/ml
ratio of the blood cell:plasma concentration [10]: 1.4
Cmax of a single dose of 200 mg ([11]; 200 mg): [147 ng/ml *4.4].
Cmax following a single dose [11]: approximately 90 nanogram/ml
dose proportionality of pharmacokinetics [11]: proportional with the dose administered in the therapeutic range
steady state Cmax [11]: 300 nanogram/ml
steady state concentrations in 95% of individuals [11]: above 80 nanogram/ml
minimum dose required to reduce parasitemia nearly to zero ([12]; prophylaxis, once every 4 days orally): 4 mg/kg
Dose in female rats required to exhibit a statistically significant impairment of Pneumocystis replication ([12]; treatment modality): 2 mpk q 4 days and 2 mpk q 4 mpk q 4 days
minimum dose required to reduce parasitemia nearly to zero ([12]; treatment, daily orally): 4 mg/kg/day
corresponding steady state plasma level ([13]; prophylaxis): ~36 nanogram/ml
effective minimum inhibitory concentration in lungs ([13]; prophylaxis): 23 micrograms/g
corresponding steady state plasma level ([13]; treatment): approximately 125 nanogram/ml
effective minimum inhibitory concentration in lungs ([13]; treatment): 81 micrograms/g

COc1cc(C)c2c(Oc3cccc(C(F)(F)F)c3)c(OC)cc(NC(C)CCCN)c2n1.O=C(O)CCC(=O)O (stereo not shown) [Tafenoquine Succinate]
MIC50 ([14]; Scedosporium, read-out: MIC 50% inhibition, isolate 00-180): 4 µg/mL
MIC ([14]; Scedosporium, read-out: MIC 100% inhibition, isolate 00-180): 8 µg/mL
MIC ([14]; Scedosporium, read-out: MIC 100% inhibition, isolate LPI): 8 µg/mL
MIC ([14]; Scedosporium, read-out: MIC 100% inhibition, isolate Scedo1): 4 µg/mL
MIC 50% inhibition ([14]; isolate LPI): 4 µg/mL
MIC 50% inhibition ([14]; isolate Scedo1): 4 µg/mL
MIC50 ([15]; read-out: MIC 50% inhibition, isolate Cocci1): 4 µg/mL
MIC50 ([15]; read-out: MIC 50% inhibition, isolate Cocci2): 16 µg/mL
MIC50 ([15]; read-out: MIC 50% inhibition, isolate D117-143): 16 µg/mL
MIC ([15]; read-out: MIC 100% inhibition, isolate Cocci1): 8 µg/mL
MIC ([15]; read-out: MIC 100% inhibition, isolate Cocci2): 16 µg/mL
MIC ([15]; read-out: MIC 100% inhibition, isolate D117-143): 16 µg/mL
MIC50 ([4]; read-out: MIC 50% inhibition, isolate AF293): 8 µg/mL
MIC50 ([4]; read-out: MIC 50% inhibition, isolate D115-106): 4 µg/mL
MIC50 ([4]; read-out: MIC 50% inhibition, isolate D115-116): 4 µg/mL
MIC [4, 23]: 16 µg/mL
MIC ([4]; read-out: MIC 100% inhibition, isolate D115-106): 8 µg/mL
MIC ([4]; read-out: MIC 100% inhibition, isolate D115-116): 4 µg/mL
MIC50 ([16]; Candidozyma auris, read-out: MIC 50% inhibition, isolate DI17-46): 4 µg/mL
MIC50 ([16]; Candidozyma auris, read-out: MIC 50% inhibition, isolate DI17-47): 4 µg/mL
MIC50 ([16]; Candidozyma auris, read-out: MIC 50% inhibition, isolate DI17-48): 2 µg/mL
MIC ([16]; Candidozyma auris, read-out: MIC 100% inhibition, isolate DI17-47): 4 µg/mL
MIC 100% inhibition ([16]; isolate DI17-46): 4 µg/mL
MIC 100% inhibition ([16]; isolate DI17-48): 4 µg/mL
MIC50 ([17]; read-out: MIC 50% inhibition, isolate 99-880): 4 µg/mL
MIC50 ([17]; read-out: MIC 50% inhibition, isolate 99-892): 4 µg/mL
MIC50 ([17]; read-out: MIC 50% inhibition, isolate RAI): 8 µg/mL
MIC ([17]; read-out: MIC 100% inhibition, isolate 99-880): 4 µg/mL
MIC ([17]; read-out: MIC 100% inhibition, isolate 99-892): 4 µg/mL
MIC ([17]; read-out: MIC 100% inhibition, isolate RAI): 16 µg/mL
MIC ([18]; Streptococcus pneumoniae, ATCC49619, isolate ATCC 49619, read-out: MIC): 16 µg/mL
MIC ([18]; Streptococcus pneumoniae, isolate MD77773, read-out: MIC): 16 µg/mL
MIC ([18]; isolate CO314937): 16 µg/mL
MIC50 ([19]; ATCC204304, read-out: MIC 50% inhibition, isolate ATCC 204304): 4 µg/mL
MIC ([19]; ATCC204304, read-out: MIC 100% inhibition, isolate ATCC 204304): 4 µg/mL
MIC50 ([19]; read-out: MIC 50% inhibition, isolate Aflav2): 8 µg/mL
MIC50 ([19]; read-out: MIC 50% inhibition, isolate Aflav3): 4 µg/mL
MIC ([19]; read-out: MIC 100% inhibition, isolate Aflav2): 16 µg/mL
MIC ([19]; read-out: MIC 100% inhibition, isolate Aflav3): 8 µg/mL
MIC ([20]; ATCC70063, isolate ATCC 70063): > 64 µg/mL
MIC ([20]; isolate AR-97): > 64 µg/mL
MIC ([20]; isolate AR-113): > 64 µg/mL
MIC50 ([21]; read-out: MIC 50% inhibition, isolate Exser1): 4 µg/mL
MIC ([21]; read-out: MIC 100% inhibition, isolate Exser1): 8 µg/mL
MIC50 ([22]; read-out: MIC 50% inhibition): 4 µg/mL
MIC ([22]; read-out: MIC 100% inhibition): 4 µg/mL
